Patent publication US20230303575A1, “FGFR AND MUTATION INHIBITOR THEREOF, PREPARATION METHOD THEREFOR AND USE THEREOF” (Abbisko Therapeutics Co., Ltd., priority 2020, published 2023)

Experiments:
Type in all cases: cell-based
FGFR3 V555M = biological target: T1, FGFR3 V555M (Homo sapiens, UniProt P22607, V555M); assay: Cell proliferation assay for FGFR3 V555M in BaF3; conditions: BaF3 cells expressing FGFR3 V555M fusion, 48 hrs, CellTiter Glo
T1 construct: P41212 (Transcription factor ETV6)
Experimental: For the compounds of the Examples of the present invention, cell strains of TEL-FGFR3 WT intracellular kinase domain fusion protein or intracellular domain fusion protein containing FGFR3 V555M or FGFR3 N540K mutation were stably expressed in Baf cells by transfection and were used to determine the cell proliferation effect of BaF3-Tel-FGFR3 WT. FGFR3 V555M or FGFR3 N540K. The specific test process was as follows: • 1) The cell suspension was plated into a 96-well plate containing growth medium (DMEM containing 1% Glutamax, 10% FBS and 1% Pen/Strep) at 2000-4000 cells/90 μL/per well, and then the mixture was incubated overnight at 37° C. and 5% CO2. • 2) 10 μL of growth medium containing a 10-fold stock solution of test compound was added to the cell culture (9 dose points, 3× serial dilution, starting from 1 μM, finally 0.3% DMSO). • 3) The mixture was incubated at 37° C. and 5% CO2 for 48 hrs. • 4) 50 μL of CellTiter Glo (CTG) reagent was added to the cell-containing 96-well plate, and the plate was then incubated at room temperature for 10 min. • 5) Relative light units (RLUs) were measured on a microplate reader with a luminescence detection module. RLU values were normalized to % survival, and concentration-response curves were plotted using Prism to calculate IC50 (nM).

FGFR2 N549K = biological target: T2, FGFR2 N549K (Homo sapiens, UniProt P21802, N549K); assay: Cell proliferation assay for Tel-FGFR2 N549K in BaF3; conditions: BaF3 cells expressing FGFR2 N549K fusion, 48 hrs, CellTiter Glo
T2 construct: P41212 (Transcription factor ETV6)
T2 sequence (P21802 481-770 N549K limits assumed): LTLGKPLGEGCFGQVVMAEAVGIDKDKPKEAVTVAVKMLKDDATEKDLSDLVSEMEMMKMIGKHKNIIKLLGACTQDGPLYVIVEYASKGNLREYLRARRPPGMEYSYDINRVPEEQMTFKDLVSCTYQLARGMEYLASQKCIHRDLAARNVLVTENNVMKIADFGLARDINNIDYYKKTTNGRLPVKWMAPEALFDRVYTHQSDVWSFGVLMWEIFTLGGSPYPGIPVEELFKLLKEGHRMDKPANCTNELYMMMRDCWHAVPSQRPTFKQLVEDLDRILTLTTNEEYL
Experimental: (§1) By transfection, cell strains of the intracellular kinase domain fusion protein of TEL-FGFR2 WT or the intracellular domain fusion proteins containing FGFR2 V564, V564F, V564L, N549K and K659M mutations were stably expressed in Baf cells. On day 1, the cell suspension was plated into a 96-well plate containing growth medium (DMEM containing 1% Glutamax, 10% FBS and 1% Pen/Strep) at 2000-4000 cells/90 μL/per well, and then the mixture was incubated overnight at 37° C. and 5% CO2. On day 2, 10 μL of growth medium containing a 10-fold stock solution of test compound was added to the cell culture (9 dose points, 3× serial dilution, starting from 1 μM, finally 0.3% DMSO). After incubation at 37° C. and 5% CO2 for 48 hrs, 50 μL of CellTiter Glo (CTG) reagent was added to the cell-containing 96-well plate on day 3, and the plate was then incubated at room temperature for 10 min. Then relative light units (RLUs) were measured on a microplate reader with a luminescence detection module. RLU values were normalized to % survival, and concentration-response curves were plotted using Prism to calculate IC50 (nM).

FGFR2 V564F = biological target: T3, FGFR2 V564F (Homo sapiens, UniProt P21802, V564F); assay: Cell proliferation assay for Tel-FGFR2 V564F in BaF3; conditions: BaF3 cells expressing FGFR2 V564F fusion, 48 hrs, CellTiter Glo
T3 construct: P41212 (Transcription factor ETV6)
T3 sequence (P21802 481-770 V564F limits assumed): as the sequence (P21802 481-770 N549K limits assumed) above, with K69N, V84F counted along it
Experimental: as §1

FGFR2 V564L = biological target: T4, FGFR2 V564L (Homo sapiens, UniProt P21802, V564L); assay: Cell proliferation assay for Tel-FGFR2 V564L in BaF3; conditions: BaF3 cells expressing FGFR2 V564L fusion, 48 hrs, CellTiter Glo
T4 construct: P41212 (Transcription factor ETV6)
T4 sequence (P21802 481-770 V564L limits assumed): as the sequence (P21802 481-770 N549K limits assumed) above, with K69N, V84L counted along it
Experimental: as §1

FGFR2 V564I = biological target: T5, FGFR2 V564I (Homo sapiens, UniProt P21802, V564I); assay: Cell proliferation assay for Tel-FGFR2 V564I in BaF3; conditions: BaF3 cells expressing FGFR2 V564I fusion, 48 hrs, CellTiter Glo
T5 construct: P41212 (Transcription factor ETV6)
T5 sequence (P21802 481-770 V564I limits assumed): as the sequence (P21802 481-770 N549K limits assumed) above, with K69N, V84I counted along it
Experimental: as §1

FGFR2 K659M = biological target: T6, FGFR2 K659M (Homo sapiens, UniProt P21802, K659M); assay: Cell proliferation assay for Tel-FGFR2 K659M in BaF3; conditions: BaF3 cells expressing FGFR2 K659M fusion, 48 hrs, CellTiter Glo
T6 construct: P41212 (Transcription factor ETV6)
T6 sequence (P21802 481-770 K659M limits assumed): as the sequence (P21802 481-770 N549K limits assumed) above, with K69N, K179M counted along it
Experimental: as §1

T1 sequence (P22607 472-761 V555M limits assumed): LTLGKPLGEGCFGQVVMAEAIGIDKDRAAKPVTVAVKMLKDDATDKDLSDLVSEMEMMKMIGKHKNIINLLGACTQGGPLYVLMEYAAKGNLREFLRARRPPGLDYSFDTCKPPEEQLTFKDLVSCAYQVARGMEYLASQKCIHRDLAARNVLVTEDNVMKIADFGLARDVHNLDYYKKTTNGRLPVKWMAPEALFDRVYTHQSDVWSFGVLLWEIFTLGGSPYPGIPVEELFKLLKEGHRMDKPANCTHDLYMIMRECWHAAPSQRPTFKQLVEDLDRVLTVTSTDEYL

IC50 (FGFR3 V555M)	IC50 (FGFR2 N549K)	IC50 (FGFR2 V564F)	IC50 (FGFR2 V564L)	IC50 (FGFR2 V564I)	IC50 (FGFR2 K659M)	Compound
0.5 to 5 nM	0.5 to 5 nM	≤ 0.5 nM	0.5 to 5 nM	≤ 0.5 nM		C=CC(=O)N1CC[C@H](n2cc(C#Cc3c(F)cc4sc(C5CC5)nc4c3F)c3c(N)ncnc32)C1 [Example 51, (S)-1-(3-(4-amino-5-((2-cyclopropyl-4,6-difluoro-benzo[d]thiazol-5-yl)ethynyl)-7H-pyrrolo[2,3-d]pyrimidin-7-yl)pyrrolidin-1-yl) prop-2-en-1-one]
0.5 to 5 nM	0.5 to 5 nM	0.5 to 5 nM	0.5 to 5 nM	≤ 0.5 nM		C=CC(=O)N1CC[C@H](n2nc(C#Cc3cc4nc(C5CC5)sc4cc3F)c3c(N)ncnc32)C1 [Example 59, (S)-1-(3-(4-amino-3-((2-cyclopropyl-6-fluorobenzo [d]thiazol-5-yl)ethynyl)-1H-pyrazolo[3,4-d]pyrimidin-1-yl)pyrrolidin-1-yl) prop-2-en-1-one]
0.5 to 5 nM		0.5 to 5 nM		≤ 0.5 nM	0.5 to 5 nM	C=CC(=O)N1CC[C@H](n2cc(C#Cc3c(F)cc4sc(C)nc4c3F)c3c(N)ncnc32)C1 [Example 75, (S)-1-(3-(4-amino-5-((4,6-difluoro-2-methylbenzo[d]thiazol-5-yl)ethynyl)-7H-pyrrolo[2,3-d]pyrimidin-7-yl)pyrrolidin-1-yl)prop-2-en-1-one]
5 to 50 nM	5 to 50 nM	0.5 to 5 nM	5 to 50 nM			C=CC(=O)N1CC[C@H](n2nc(C#Cc3ccc4sc(C)nc4c3)c3c(N)ncnc32)C1 [Example 52, (S)-1-(3-(4-amino-3-((2-methylbenzo[d]thiazol-5-yl)ethynyl)-1H-pyrazolo [3,4-d]pyrimidin-1-yl)pyrrolidin-1-yl)prop-2-en-1-one]
≤ 0.5 nM	0.5 to 5 nM	≤ 0.5 nM	0.5 to 5 nM		5 to 50 nM	C=CC(=O)N1C[C@@H](n2nc(C#Cc3c(F)cc4sc(N5CCC5)nc4c3F)c3c(N)ncnc32)C[C@@H]1COC [Example 69, 1-((2R,4S)-4-(4-amino-3-((2-(azetidin-1-yl)-4,6-difluorobenzo[d]thiazol-5-yl)ethynyl)-1H-pyrazolo[3,4-d]pyrimidin-1-yl)-2-(methoxy-methyl)pyrrolidin-1-yl)prop-2-en-1-one]
5 to 50 nM	0.5 to 5 nM	0.5 to 5 nM	0.5 to 5 nM	≤ 0.5 nM		C=CC(=O)N1CC[C@H](n2cc(C#Cc3ccc4sc(CC)nc4c3)c3c(N)ncnc32)C1 [Example 44, (S)-1-(3-(4-amino-5-((2-ethylbenzo[d]thiazol-5-yl)ethynyl)-7H-pyrrolo[2,3-d]pyrimidin-7-yl)pyrrolidin-1-yl)prop-2-en-1-one]
5 to 50 nM	5 to 50 nM	0.5 to 5 nM	5 to 50 nM			C=CC(=O)N1CC[C@H](n2cc(C#Cc3ccc4oc(NC)nc4c3)c3c(N)ncnc32)C1 [Example 7, (S)-1-(3-(4-amino-5-((2-(methylamino)benzo[d]oxazol-5-yl)ethynyl)-7H-pyrrolo[2,3-d]pyrimidin-7-yl)pyrrolidin-1-yl)prop-2-en-1-one]
0.5 to 5 nM	0.5 to 5 nM	0.5 to 5 nM	0.5 to 5 nM	≤ 0.5 nM		C=CC(=O)N1CC[C@H](n2cc(C#Cc3cc4nc(C5CC5)sc4cc3F)c3c(N)ncnc32)C1 [Example 48, (S)-1-(3-(4-amino-5-((2-cyclopropyl-6-fluorobenzo [d]thiazol-5-yl)ethynyl)-7H-pyrrolo[2,3-d]pyrimidin-7-yl)pyrrolidin-1-yl)prop-2-en-1-one]
5 to 50 nM	0.5 to 5 nM	5 to 50 nM	5 to 50 nM			C=CC(=O)N1CC[C@H](n2nc(C#Cc3ccc4sc(C(F)F)nc4c3)c3c(N)ncnc32)C1 [Example 55, (S)-1-(3-(4-amino-3-((2-(difluoromethyl)benzo[d]thiazol-5-yl)ethynyl)-1H-pyrazolo[3,4-d]pyrimidin-1-yl)pyrrolidin-1-yl)prop-2-en-1-one]
5 to 50 nM	0.5 to 5 nM	0.5 to 5 nM	0.5 to 5 nM			C=CC(=O)N1CC[C@H](n2cc(C#Cc3ccc4oc(CC)nc4c3)c3c(N)ncnc32)C1 [Example 3, (S)-1-(3-(4-amino-5-((2-ethylbenzo[d]oxazol-5-yl)ethynyl)-7H-pyrrolo[2,3-d]pyrimidin-7-yl)pyrrolidin-1-yl)prop-2-en-1-one]
5 to 50 nM	0.5 to 5 nM	0.5 to 5 nM	0.5 to 5 nM			C=CC(=O)N1CC[C@H](n2cc(C#Cc3ccc4sc(C(F)F)nc4c3)c3c(N)ncnc32)C1 [Example 45, (S)-1-(3-(4-amino-5-((2-(difluoromethyl)benzo[d]thiazol-5-yl)ethynyl)-7H-pyrrolo[2,3-d]pyrimidin-7-yl)pyrrolidin-1-yl)prop-2-en-1-one]
5 to 50 nM	0.5 to 5 nM	≤ 0.5 nM	0.5 to 5 nM			C=CC(=O)N1CC[C@H](n2cc(C#Cc3ccc4oc(C)nc4c3)c3c(N)ncnc32)C1 [Example 2, (S)-1-(3-(4-amino-5-((2-methylbenzo[d]oxazol-5-yl)ethynyl)-7H-pyrrolo[2,3-d]pyrimidin-7-yl)pyrrolidin-1-yl)prop-2-en-1-one]
50 to 500 nM	5 to 50 nM	5 to 50 nM	0.5 to 5 nM			C=CC(=O)N1CC[C@H](n2nc(C#Cc3cnc4sc(C)nc4c3)c3c(N)ncnc32)C1 [Example 41, (S)-1-(3-(4-amino-3-((2-methylthiazolo[5,4-6]pyridin-6-yl)ethynyl)-1H-pyrazolo [3,4-d]pyrimidin-1-yl)pyrrolidin-1-yl)prop-2-en-1-one]
5 to 50 nM	0.5 to 5 nM	≤ 0.5 nM	0.5 to 5 nM	≤ 0.5 nM		C=CC(=O)N1CC[C@H](n2nc(C#Cc3cc4nc(C)sc4cc3F)c3c(N)ncnc32)C1 [Example 57, (S)-1-(3-(4-amino-3-((6-fluoro-2-methylbenzo[d]thiazol-5-yl)ethynyl)-1H-pyrazolo[3,4-d]pyrimidin-1-yl)pyrrolidin-1-yl)prop-2-en-1-one]
5 to 50 nM	0.5 to 5 nM	0.5 to 5 nM	0.5 to 5 nM	≤ 0.5 nM		C=CC(=O)N1CC[C@H](n2nc(C#Cc3ccc4sc(CC)nc4c3)c3c(N)ncnc32)C1 [Example 53, (S)-1-(3-(4-amino-3-((2-ethylbenzo[d]thiazol-5-yl)ethynyl)-1H-pyrazolo[3,4-d]pyrimidin-1-yl)pyrrolidin-1-yl)prop-2-en-1-one]
5 to 50 nM	0.5 to 5 nM	≤ 0.5 nM	0.5 to 5 nM		5 to 50 nM	C=CC(=O)N1CC[C@H](n2cc(C#Cc3ccc4sc(C)nc4c3)c3c(N)ncnc32)C1 [Example 42, (S)-1-(3-(4-amino-5-((2-methylbenzo[d]thiazol-5-yl)ethynyl)-7H-pyrrolo[2,3-d]pyrimidin-7-yl)pyrrolidin-1-yl)prop-2-en-1-one]
0.5 to 5 nM		≤ 0.5 nM		≤ 0.5 nM	0.5 to 5 nM	C=CC(=O)N1CC[C@H](n2nc(C#Cc3cc4nc(C5(F)CC5)oc4cc3F)c3c(N)ncnc32)C1 [Example 36]
5 to 50 nM	0.5 to 5 nM	0.5 to 5 nM	0.5 to 5 nM			C=CC(=O)N1CC[C@H](n2nc(C#Cc3ccc4sc(C5CC5)nc4c3)c3c(N)ncnc32)C1 [Example 54, (S)-1-(3-(4-amino-3-((2-cyclopropylbenzo[d]thiazol-5-yl)ethynyl)-1H-pyrazolo [3,4-d]pyrimidin-1-yl)pyrrolidin-1-yl)prop-2-en-1-one]
